Measured values from paper PMC6943638, “Lectin PLL3, a Novel Monomeric Member of the Seven-Bladed β-Propeller Lectin Family” (Molecules, 2019).
Starred links: 1 amine or outer side, 2 acyl side, 3 side chain; linkers in the order of their positions; H or OH if unused. Residues, ends and D or L forms follow the SMILES beside them. Suc = O=C(CCC(=O)[*:2])[*:1]

target: PLL3 (Photorhabdus laumondii subsp. laumondii, UniProt Q7N8I7); assay: Glycan array screening with DyLight 488-labeled PLL3; assay type: binding; details: glycan array signal of DyLight 488-labeled PLL3 per immobilized glycan or bacterial polysaccharide
Excerpt: Purified PLL3 protein was labeled with DyLight 488 NHS Ester (Thermo Scientific, Rockford, MI, USA) according to the manual instructions of the manufacturer. The unbound dye was removed from the solution using the Zeba Spin Desalting Column (Thermo scientific). The labeled lectin was used for glycan array screening using a glycan microarray chip (Semiotik, Moscow, Russia; chip format OSPS280715; slide number 10085636) containing over 600 mammalian and bacterial glycans (all in hexaplicates). The glycan microarray chip was incubated in 1.0 mL of PBS buffer supplemented with 0.1% (v/v) Tween 20 and placed in a humid chamber for 15 min (37 °C, 40 rpm). Then, the buffer was replaced by 0.5 mL PLL3 (200 μg mL^−1) diluted in PBS buffer with 0.1% Tween 20 and 1% (w/v) bovine serum albumin (Serva, Germany). After incubation (90 min, 37 °C, 40 rpm), the chip was washed by decreasing concentrations of PBS with 0.1% Tween 20, followed by multiple immersions in ultrapure water. Subsequently, the chip was dried by air blow. Fluorescence was read with a scanner InnoScan 1100 AL (Innopsys, Carbonne, France) with a 488 nm laser at 20 °C. The data were analyzed with the software Mapix 8.2.2 and an online glycan chip converter (Semiotik, https://rakitko.shinyapps.io/semiotik). The relative fluorescent response of PLL3 binding was calculated from hexaplicates of each glycan immobilized onto the chip. Only glycans with a response three or more times higher than trehalose and concurrently with a signal-to-noise ratio higher than two were considered as significant binders.

Chain of PLL3 (Q7N8I7 entry or part of it): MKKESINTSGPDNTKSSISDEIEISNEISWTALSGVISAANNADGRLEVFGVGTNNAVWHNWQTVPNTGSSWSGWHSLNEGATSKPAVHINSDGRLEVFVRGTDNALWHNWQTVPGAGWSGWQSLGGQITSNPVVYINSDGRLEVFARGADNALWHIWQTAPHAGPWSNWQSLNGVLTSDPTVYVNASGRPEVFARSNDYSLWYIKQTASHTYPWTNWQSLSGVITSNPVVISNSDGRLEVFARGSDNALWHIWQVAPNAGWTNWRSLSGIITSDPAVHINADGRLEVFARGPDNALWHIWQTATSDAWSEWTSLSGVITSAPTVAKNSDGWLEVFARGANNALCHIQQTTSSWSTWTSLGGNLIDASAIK

Row | Molecule | Median
1 | NCCOCCOCCOCCOCCOCCOCC(=O)NCCOC1OC(COC2OC(COC3OC(CO)C(O)C3OC3OC(CO)C(O)C3O)C(OC3OC(CO)C(O)C3OC3OC(CO)C(O)C3O)C2O)C(O)C1O (stereo not shown) | 220
2 | CC(=O)N[C@@H]1C(O)C[C@](O[C@@H]2C(O)[C@H](O[C@@H]3C(CO)OC(NC(=O)CN)C(O)[C@H]3O)OC(CO)[C@@H]2O)(C(=O)O)OC1[C@H](O)[C@H](O)CO (stereo partly shown) [3'SL-Gly] | 101
3 | CC(=O)N[C@H]1[C@H]([C@H](O)[C@H](O)CO)O[C@@](O[C@H]2[C@@H](O)[C@@H](CO)O[C@@H](O[C@H]3[C@H](O)[C@@H](NC(C)=O)C(O)O[C@@H]3CO)[C@@H]2O)(C(=O)O)C[C@@H]1O (stereo partly shown) [3'SLN] | 43
4 | COCC1OC(O)C(O)C(OC)C1O (stereo not shown) [3,6-Me2Glc] | 74
5 | CC(=O)N[C@H]1[C@H]([C@H](O)[C@H](O)CO)OC(OC[C@H]2O[C@@H](O[C@H]3[C@H](O)[C@@H](NC(C)=O)C(O)O[C@@H]3CO)[C@H](O)[C@@H](O)[C@H]2O)(C(=O)O)C[C@@H]1O (stereo partly shown) [6'SLN] | 99
6 | CC(=O)N[C@H]1[C@H]([C@H](O)[C@H](O)CO)O[C@@](O[C@H](CO)[C@@H](O)[C@@H]2O[C@@](O[C@H](CO)[C@@H](O)[C@@H]3O[C@](O)(C(=O)O)C[C@H](O)[C@H]3NC(C)=O)(C(=O)O)C[C@H](O)[C@H]2NC(C)=O)(C(=O)O)C[C@@H]1O [(Sia)3] | 158
7 | CC(=O)N[C@H]1[C@@H](O[C@H]2[C@@H](O)[C@@H](CO)OC(O)[C@@H]2O[C@@H]2O[C@@H](C)[C@@H](O)[C@@H](O)[C@@H]2O)O[C@H](CO)[C@H](O)[C@@H]1O (stereo partly shown) [Atri] | 167
8 | CC(=O)N[C@@H]1[C@@H](O)[C@H](O[C@@H]2O[C@H](CO)[C@H](O)[C@H](O[C@H]3O[C@H](CO)[C@H](O)[C@H](O)[C@H]3NC(C)=O)[C@H]2O[C@@H]2O[C@@H](C)[C@@H](O)[C@@H](O)[C@@H]2O)[C@@H](CO)O[C@H]1O [Atype2] | 158
9 | OC[C@H]1O[C@H](O[C@H]2[C@@H](O)[C@@H](CO)OC(O)[C@@H]2O)[C@H](O)[C@@H](O)[C@H]1O (stereo partly shown) [Bdi] | 134
10 | CC(=O)N[C@H]1[C@@H](OC[C@H](N)C(=O)O)O[C@H](CO)[C@H](O)[C@@H]1O [GalNAca1-OSer] | 208
11 | CC(=O)N[C@H]1[C@H](OCCCN)O[C@H](CO)[C@@H](O[C@@H]2O[C@H](CO)[C@H](O)[C@H](O)[C@H]2O)[C@@H]1O [Galb1-4GlcNAcb-sp8] | 184
12 | CC(=O)N[C@@H]1[C@@H](O)[C@H](O[C@@H]2O[C@H](CO)[C@@H](O)[C@H](O)[C@H]2NC(C)=O)[C@@H](CO)O[C@H]1NC(=O)C[C@H](N)C(=O)O [GlcNAcb1-4GlcNAcb-Asn] | 277
13 | NCC(O)C(O)C(O)C(O)CO (stereo not shown) [HOCH2(HOCH)4CH2NH2] | 293
14 | O=C[C@@H](O)[C@@H](O)[C@H](O)[C@H](O)COP(=O)(O)O [M6P] | 148
15 | CC(=O)N[C@H]1[C@H]([C@H](O)[C@H](O)CO)OC(O)(C(=O)O)C[C@@H]1O (stereo partly shown) [Sia] | 112

same assay, conditions: glycan array signal of DyLight 488-labeled PLL3 per printed glycan; Table S2, file PLU35_second_noheader.gpr

Row | Molecule | Median
16 | O=P(O)(O)OC[C@H]1O[C@H](O)[C@H](O)[C@@H](O)[C@@H]1O [G6P] | 615
17 | NCC(=O)NCC(=O)NCC(=O)NCC(=O)NCC(=O)NCC(N)=O [Gly6] | 530
18 | C[C@@H]1O[C@@H](O[C@H]2[C@H](O[C@H]3[C@H](O)[C@@H](O)[C@H](O)O[C@@H]3CO)O[C@H](CO)[C@H](O)[C@@H]2O)[C@@H](O)[C@H](O)[C@@H]1O [Htype6] | 474
19 | CC(=O)N[C@H]1[C@H](O[C@H]2[C@@H](O)[C@@H](CO)O[C@@H](O[C@H]3[C@H](O)[C@@H](O)C(O)O[C@@H]3CO)[C@@H]2O)O[C@H](CO)[C@@H](O)[C@@H]1O[C@@H]1O[C@H](CO)[C@H](O)[C@H](O)[C@H]1O (stereo partly shown) [LNT] | 349
20 | CC(=O)N[C@H]1[C@H](O[C@H]2[C@@H](O)[C@@H](CO)O[C@@H](O[C@H]3[C@H](O)[C@@H](O)C(O)O[C@@H]3CO)[C@@H]2O)O[C@H](CO)[C@@H](O)[C@@H]1O[C@@H]1O[C@H](CO)[C@H](O)[C@H](O[C@]2(C(=O)O)C[C@H](O)[C@@H](NC(C)=O)[C@H]([C@H](O)[C@H](O)CO)O2)[C@H]1O (stereo partly shown) [LSTa] | 328
21 | CC(=O)N[C@H]1[C@H](O[C@H]2[C@@H](O)[C@@H](CO)O[C@@H](O[C@@H]([C@H](O)[C@@H](O)C=O)[C@H](O)CO)[C@@H]2O)O[C@H](CO[C@]2(C(=O)O)C[C@H](O)[C@@H](NC(C)=O)[C@H]([C@H](O)[C@H](O)CO)O2)[C@@H](O)[C@@H]1O[C@@H]1O[C@H](CO)[C@H](O)[C@H](O)[C@H]1O [LSTb] | 348
22 | CCCCCn1ccc2ccccc21 [NpentylIndol] | 872
23 | CC(C)C[C@H](NC(=O)CCC(=O)O)C(=O)N1CCC[C@H]1C(=O)N[C@@H](Cc1c[nH]c2ccccc12)C(=O)N[C@@H](Cc1ccc(O)cc1)C(=O)N[C@@H](CCCNC(=N)N)C(=O)N[C@@H](C)C(=O)N1CCC[C@H]1C(=O)N[C@@H](CCCCN)C(N)=O [RhD] (Suc-LPWYRAPK-NH2) | 563
24 | OC[C@H]1O[C@H](O[C@H]2O[C@H](CO)[C@@H](O)[C@H](O)[C@H]2O)[C@H](O)[C@@H](O)[C@@H]1O [Treh] | 2512
25 | OC[C@H]1O[C@@H](O[C@H]2[C@H](O)[C@@H](O)[C@H](O)O[C@@H]2CO)[C@H](O)[C@@H](O)[C@@H]1O [cello] | 672
26 | Chitosan | 1790
27 | Curdlan | 1158
28 | Laminaran | 417
29 | Laminarin | 954
30 | Mannan | 480
31 | Scleroglucan | 1150
